PubChem BioAssay AID248 (DTP/NCI, 2004)
Values joined by “and” are separate entries in the source; they are usually repeats but may differ in a detail not shown here. Equal entries are not always repeated. Toxic doses and inconclusive results are not listed. Rule as the data show it: active = T/C of 150% or more; inactive = T/C below 125%.

Test system: L1210 leukemia ip in BDF1 mice, survival T/C
Assay: NCI In Vivo Anticancer Drug Screen. Data for tumor model L1210 Leukemia (intraperitoneal) in B6D2F1 (BDF1) mice
Settings: endpoint: mean survival time, higher = longer survival
Method in brief: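 Tumor cells were implanted, animals were treated, and survival was followed. The result divides the treated measurement by the vehicle-control measurement.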

[1] = dose: 100.0 mg/kg/injection, schedule: Q04DX003 (ip), vehicle: saline with Tween-80
[2] = dose: 100.0 mg/kg/injection, schedule: Q01DX001 (ip), vehicle: Klucel (hydroxypropylcellulose) (HPC)
[3] = dose: 200.0 mg/kg/injection, schedule: Q01DX001 (ip), vehicle: Klucel (hydroxypropylcellulose) (HPC)
[4] = dose: 100.0 mg/kg/injection, schedule: Q01DX001 (ip), vehicle: saline
[5] = dose: 200.0 mg/kg/injection, schedule: Q01DX001 (ip), vehicle: saline
[6] = dose: 400.0 mg/kg/injection, schedule: Q01DX001 (ip), vehicle: saline
[7] = dose: 100.0 mg/kg/injection, schedule: Q04DX003 (ip), vehicle: Klucel (hydroxypropylcellulose) (HPC)
[8] = dose: 200.0 mg/kg/injection, schedule: Q04DX003 (ip), vehicle: Klucel (hydroxypropylcellulose) (HPC)
[9] = dose: 400.0 mg/kg/injection, schedule: Q04DX003 (ip), vehicle: Klucel (hydroxypropylcellulose) (HPC)
[10] = dose: 50.0 mg/kg/injection, schedule: Q01DX009 (ip), vehicle: Klucel (hydroxypropylcellulose) (HPC)
[11] = dose: 100.0 mg/kg/injection, schedule: Q01DX009 (ip), vehicle: Klucel (hydroxypropylcellulose) (HPC)
[12] = dose: 200.0 mg/kg/injection, schedule: Q01DX009 (ip), vehicle: Klucel (hydroxypropylcellulose) (HPC)
[13] = dose: 100.0 mg/kg/injection, schedule: Q01DX001 (ip), vehicle: carboxymethylcellulose (CMC)
[14] = dose: 200.0 mg/kg/injection, schedule: Q01DX001 (ip), vehicle: carboxymethylcellulose (CMC)
[15] = dose: 400.0 mg/kg/injection, schedule: Q01DX001 (ip), vehicle: carboxymethylcellulose (CMC)
[16] = dose: 50.0 mg/kg/injection, schedule: Q01DX009 (ip), vehicle: saline
[17] = dose: 100.0 mg/kg/injection, schedule: Q01DX009 (ip), vehicle: saline
[18] = dose: 200.0 mg/kg/injection, schedule: Q01DX009 (ip), vehicle: saline

Measured: T/C

CC(C)=C(c1ccc(C(C)(C)C)cc1)c1ccc(C(C)(C)C)cc1
inactive: dose: 100.0 mg/kg/injection, schedule: Q01DX009 (ip), vehicle: saline with Tween-80 94 % of control | dose: 200.0 mg/kg/injection, schedule: Q01DX009 (ip), vehicle: saline with Tween-80 95 % of control

O=C(NC/C=C/Br)Nc1cnc2ccccc2c1
inactive: dose: 12.5 mg/kg/injection, schedule: Q01DX009 (ip), vehicle: saline with Tween-80 96 % of control | dose: 25.0 mg/kg/injection, schedule: Q01DX009 (ip), vehicle: saline with Tween-80 101 % of control | dose: 50.0 mg/kg/injection, schedule: Q01DX009 (ip), vehicle: saline with Tween-80 96 % of control | [1] 89 % of control

Nc1[nH]c(=S)ncc1-c1cccc(Cl)c1
inactive: dose: 50.0 mg/kg/injection, schedule: Q01DX001 (ip), vehicle: Klucel (hydroxypropylcellulose) (HPC) 110 % of control | [2] 117 % of control | [3] 114 % of control

N#CCC(=O)N/N=C/c1ccccc1
inactive: dose: 100.0 mg/kg/injection, schedule: Q04DX002 (ip), vehicle: saline with Tween-80 97 % of control | dose: 200.0 mg/kg/injection, schedule: Q04DX002 (ip), vehicle: saline with Tween-80 101 % of control | dose: 400.0 mg/kg/injection, schedule: Q04DX002 (ip), vehicle: saline with Tween-80 101 % of control

S=C(Nc1ccccc1)NC1CC2C=CC1CC2 (stereo not given)
inactive: [4] 90 % of control | [5] 92 % of control | [6] 113 % of control

O=S(=O)(c1ccccc1)C1CCCC1Cl (stereo not given)
inactive: [4] 104 % of control | [5] 96 % of control | [6] 100 % of control

COc1ccc(C(=O)CC(O)(C(F)(F)F)C(F)(F)F)cc1F
inactive: [7] 103 % of control | [8] 106 % of control | [9] 95 % of control

C/C=C1/CN2C3CC1C1(C(=O)OC)C2CC2(c4ccccc4N(C)C32)C1O (stereo not given)
inactive: [10] 94 % of control | [2] 105 % of control | [11] 98 % of control | [3] 97 % of control | [12] 96 % of control | dose: 400.0 mg/kg/injection, schedule: Q01DX001 (ip), vehicle: Klucel (hydroxypropylcellulose) (HPC) 93 % of control

COc1ccccc1C(=O)C=C(C(F)(F)F)C(F)(F)F
inactive: [1] 95 % of control | dose: 200.0 mg/kg/injection, schedule: Q04DX003 (ip), vehicle: saline with Tween-80 97 % of control

Cn1c2ccc3c(c2c(=O)c2ccoc21)C=CC(C)(C)O3
inactive: dose: 50.0 mg/kg/injection, schedule: Q01DX001 (ip), vehicle: carboxymethylcellulose (CMC) 98 % of control | [13] 98 % of control | [14] 91 % of control | [15] 98 % of control

O=S1(=O)CC(c2ccc(F)cc2)Nc2ccccc21 (stereo not given)
inactive: [7] 102 % of control | [8] 102 % of control | [9] 97 % of control

O=C(NCCc1cnc[nH]1)C(F)(F)F
inactive: [16] 96 % of control | [17] 96 % of control | [18] 100 % of control

CCOC1(OCC)CS(=O)(=O)C1
inactive: dose: 25.0 mg/kg/injection, schedule: Q01DX009 (ip), vehicle: saline sonified 100 % of control | dose: 50.0 mg/kg/injection, schedule: Q01DX009 (ip), vehicle: saline sonified 95 % of control | dose: 100.0 mg/kg/injection, schedule: Q01DX009 (ip), vehicle: saline sonified 106 % of control | dose: 100.0 mg/kg/injection, schedule: Q04DX003 (ip), vehicle: saline 109 % of control | dose: 200.0 mg/kg/injection, schedule: Q04DX003 (ip), vehicle: saline 117 % of control | dose: 400.0 mg/kg/injection, schedule: Q04DX003 (ip), vehicle: saline 112 % of control

C[C@]12CC[C@H]3C(=CCc4cc(O)ccc43)[C@@H]1CCC2=O
inactive: dose: 100.0 mg/kg/injection, schedule: Q01DX001 (sc), vehicle: steriod suspending solution 94 % of control | dose: 200.0 mg/kg/injection, schedule: Q01DX001 (sc), vehicle: steriod suspending solution 100 % of control | dose: 400.0 mg/kg/injection, schedule: Q01DX001 (sc), vehicle: steriod suspending solution 91 % of control

C/C=C\C=C\COC(=O)CC(C)C
inactive: dose: 100.0 mg/kg/injection, schedule: Q04DX002 (ip), vehicle: saline 103 % of control | dose: 200.0 mg/kg/injection, schedule: Q04DX002 (ip), vehicle: saline 103 % of control | dose: 400.0 mg/kg/injection, schedule: Q04DX002 (ip), vehicle: saline 103 % of control

O=C(c1ccccc1)C1C(c2ccccc2)N1C1CCCCC1 (stereo not given)
inactive: [10] 95 % of control | [11] 97 % of control and 103 % of control | [7] 96 % of control and 100 % of control | [12] 95 % of control and 89 % of control | [8] 93 % of control and 88 % of control | dose: 400.0 mg/kg/injection, schedule: Q01DX009 (ip), vehicle: Klucel (hydroxypropylcellulose) (HPC) 90 % of control and 91 % of control | [9] 95 % of control and 100 % of control

CCCCCCCCCCC/C=N\N(C)C
inactive: dose: 100.0 mg/kg/injection, schedule: Q04DX002 (ip), vehicle: Klucel (hydroxypropylcellulose) (HPC) 96 % of control | dose: 200.0 mg/kg/injection, schedule: Q04DX002 (ip), vehicle: Klucel (hydroxypropylcellulose) (HPC) 92 % of control | dose: 400.0 mg/kg/injection, schedule: Q04DX002 (ip), vehicle: Klucel (hydroxypropylcellulose) (HPC) 103 % of control

CC1(C)CCC(C)(C)c2cc(Br)ccc21
inactive: [13] 103 % of control | [14] 95 % of control | [15] 95 % of control

NC(N1CC1)(C(F)(F)F)C(F)(F)F
inactive: dose: 20.0 mg/kg/injection, schedule: Q01DX001 (ip), vehicle: saline 100 % of control | dose: 20.0 mg/kg/injection, schedule: Q04DX003 (ip), vehicle: saline 102 % of control | dose: 40.0 mg/kg/injection, schedule: Q01DX001 (ip), vehicle: saline 111 % of control | dose: 40.0 mg/kg/injection, schedule: Q04DX003 (ip), vehicle: saline 102 % of control | dose: 80.0 mg/kg/injection, schedule: Q01DX001 (ip), vehicle: saline 102 % of control | dose: 80.0 mg/kg/injection, schedule: Q04DX003 (ip), vehicle: saline 94 % of control

CC1(C)OCC(C2OC(=O)C=C2OS(=O)(=O)O)O1 (stereo not given)
inactive: dose: 75.0 mg/kg/injection, schedule: Q01DX001 (ip), vehicle: saline 95 % of control

CCCCO.[Sn]
inactive: [16] 99 % of control and 109 % of control | [17] 96 % of control and 109 % of control | [18] 99 % of control and 106 % of control

O=c1[nH]c(/C=C/c2ccc(Cl)cc2)nc(O)c1-c1ccc(Cl)cc1
inactive: [4] 104 % of control | [7] 102 % of control | [5] 98 % of control | [8] 96 % of control | [6] 93 % of control | [9] 98 % of control
